In paper PMC9468151, “Identification of a binding site on soluble RANKL that can be targeted to inhibit soluble RANK-RANKL interactions and treat osteoporosis” (Nature Communications, 2022):
“And” between values parts separate entries of the source, which are not always exact repeats. Identical values can stand only once. “Also recorded” adds a separate entry of the source.

How the values were obtained:
RAW264.7 cells = test: In vitro cytotoxicity assay (MTT); type: cell-based, mouse; conditions: RAW264.7, MTT
Procedure: MTT assay was used to determine cell viability. RAW264.7 cells in the logarithmic growth phase were cultured in 96-well plates with 6 × 10^3 cells in each well and incubated for 24 h. The surviving cells were then determined by MTT method. […] Cell growth inhibition ratio was calculated as follows: Cellgrowthinhibitionratio%=ODvehicle−ODtreaed/ODvehicle×100%
Cell cytotoxicity CC50 value were conducted by using Nonlinear regression (curve fit) analytic procedure in GraphPad Prism 8.

[1] = test system: sRANKL induced osteoclast differentiation; test: In vitro anti-osteoclastogenesis activity determination (TRAP staining); type: cell-based, mouse; set-up: key to inhibition of osteoclastogenesis, dose-response (fig. S2a): % inhibition = 100 − (treated−unstimulated)/(untreated−unstimulated)×100; conditions: for inhibition of osteoclastogenesis, dose-response (fig. S2a): three replicate columns; for IC50: read-out: OC IC50 (anti-osteoclastogenesis activity)
Procedure: Mouse osteoclasts were cultured according to the previously reported protocols. BMMs were plated in 96-well plates at a density of 6 × 10^3 cells/well with complete medium containing 10 ng/mL M-CSF. The following day, cells were then stimulated with 100 ng/mL sRANKL in the presence or absence of compounds with different concentrations every 2 days until osteoclasts formed. In order to calculate IC50, we set 9 concentrations for each compound and untreated and non-sRANKL unstimulating group as controls, each with triplicated repeated wells. After 5 days, cells were fixed with 4% paraformaldehyde and then applied TRAP-staining to identify osteoclasts by using the TRAP-staining kit. Osteoclasts number (OC No.) in each well was counted and the percentage of inhibition ratio was calculated as follows:1 OCinhibitoryratio%=100−OCNo.treated−OCNo.unstimulating/OCNo.untreated−OCNo.unstimulating×100%
The dosages and their correspondent osteoclastogenesis inhibitory activity curve and IC50 value were conducted by using Nonlinear regression (curve fit) analytic procedure in GraphPad Prism 8. Photographs of individual wells were taken using Leica microscope.

[2] = BMMs, M-CSF + 100 ng/mL sRANKL, 5 days, TRAP staining

SMILES	CC50 (RAW264.7 cells)	inhibition of osteoclastogenesis, dose-response (fig. S2a) ([1]; conc. 0.0023464 μM)	inhibition of osteoclastogenesis, dose-response (fig. S2a) ([1]; conc. 0.00774313 μM)	inhibition of osteoclastogenesis, dose-response (fig. S2a) ([1]; conc. 0.0255523 μM)	inhibition of osteoclastogenesis, dose-response (fig. S2a) ([1]; conc. 0.0843226 μM)	inhibition of osteoclastogenesis, dose-response (fig. S2a) ([1]; conc. 0.278265 μM)	inhibition of osteoclastogenesis, dose-response (fig. S2a) ([1]; conc. 0.918274 μM)	inhibition of osteoclastogenesis, dose-response (fig. S2a) ([1]; conc. 3.0303 μM)	inhibition of osteoclastogenesis, dose-response (fig. S2a) ([1]; conc. 10 μM)	inhibition of osteoclastogenesis, dose-response (fig. S2a) ([1]; conc. 33 μM)	IC50 [1, 2]	OC IC50 (anti-osteoclastogenesis activity) [1, 2]
CCOC(=O)c1sc(NC(=O)C(=NNc2ccccc2C(=O)OC)C(C)=O)nc1C [S3-00]	57.2 µM	7.803 and 2.07 and 1.592	3.981 and 7.325 and 13.535	-1.274 and 4.936 and 3.025	10.6688 and 9.713 and 2.07	4.936 and 4.4586 and 8.758	21.1783 and 12.5796 and 14.9681	46.9745 and 43.6306 and 45.5414	57.4841 and 67.9936 and 66.5605	93.3121 and 95.2229 and 92.8344		
CCOC(=O)c1sc(NC(=O)C(=NNc2ccccc2O)C(C)=O)nc1C [S3-06]	202 µM	-2.117 and 4.235 and 7.166	2.28 and -2.606 and 3.746	1.792 and 3.746 and -0.1629	4.723 and 7.166 and -1.14	27.1987 and 24.2671 and 26.2215	39.4137 and 37.4593 and 42.3453	68.7296 and 60.9121 and 64.3322	81.9218 (2×) and 82.899	100	1.4 µM	
CCOC(=O)c1sc(NC(=O)C(=NNc2ccccc2CO)C(C)=O)nc1C [S3-07]	49.1 µM										2.33 µM	inactive; also recorded: lose osetoclastogenesis inhibitory activities
CC(=O)C(=NNc1ccccc1C(=O)O)C(=O)Nc1nc(C)cs1 [S3-08]	> 100 µM	1.304 and -3.21 and -2.307	3.711 and 2.508 and 1.304	3.109 and 3.41 and 5.517	6.118 and 6.419 and 8.225	18.7563 and 19.0572 and 20.2608	29.8897 and 31.0933 and 35.005	50.9529 and 40.7222 and 44.6339	83.7512 and 85.2558 and 78.6359	100	2.33 µM and 2.34 µM	
CCOC(=O)c1sc(NC(=O)C(=NNc2cc(C)ccc2C(=O)O)C(C)=O)nc1C [S3-10]	41.1 µM	3.829 and 3.173 and -0.4376	4.486 and 2.516 and 3.173	5.142 and 3.173 and 7.1116	9.409 and 8.096 and 12.3632	13.6761 and 23.1947 and 19.256	34.0263 and 27.4617 (2×)	35.3392 and 33.3698 and 37.6368	87.1991 and 82.6039 and 90.1532	100		
CCOC(=O)c1sc(NC(=O)C(=NNc2c(C)cccc2C(=O)O)C(C)=O)nc1C [S3-11]	75.2 µM	6.678 and -7.003 and 1.303	-5.049 and 1.792 and -0.6515	-0.6515 and 3.257 and 0.3257	5.212 and -2.117 and 3.746	16.4495 and 15.9609 and 19.3811	28.1759 and 21.3355 and 30.1303	50.1629 and 34.5277 and 49.6743	97.557 and 94.1368 and 98.0456	100		
CC(=O)C(=NNc1ccccc1C(=O)[O-])C(=O)Nc1nc(C)cs1.[Na+] [S3-12]	65.8 µM	4.4898 and 6.02 and -2.2449	6.939 and -1.02 and -1.633	4.796 and 0.8163 and -3.469	37.8571 and 16.4286 and 7.857	39.3878 and 32.9592 and 21.3265	55.3061 and 47.3469 and 54.0816	74.2857 and 67.551 and 64.4898	94.7959 and 77.0408 and 85	100		
CCOC(=O)c1sc(NC(=O)C(=NNc2ccc(C)cc2C(=O)O)C(C)=O)nc1C [S3-13]	> 100 µM	1.735 and -0.7143 and 2.347	1.735 and -2.551 and 3.571	7.857 and -4.694 and -0.102	11.8367 and 3.878 and -9.592	11.2245 and 7.551 and -1.327	7.2449 and 6.633 and 3.571	7.2449 and 2.959 and -1.327	47.6531 and 40.3061 and 42.7551	100	10.7 µM	
CCOC(=O)c1sc(NC(=O)C(=NNc2ccc(F)cc2C(=O)O)C(C)=O)nc1C [S3-14]	76.2 µM	3.265 and -2.857 and -2.551	7.2449 and 0.2041 and -2.857	7.2449 and 2.041 and 14.2857	37.8571 and 28.9796 and 23.4694	54.3878 and 61.4286 and 45.8163	73.9796 and 67.2449 and 59.2857	88.9796 and 96.3265 and 87.7551	98.4694 and 95.7143 and 97.551	100	0.27 µM	
CC(=O)C(=NNc1ccccc1C(=O)O)C(=O)Nc1ccc(C#N)cn1 [S3-15-1]	81.2 µM	2.8169 and -0.3521 and -2.465	2.113 and 9.859 and 10.5634	19.3662 and 16.1972 and 17.6056	28.169 and 26.7606 and 24.2958	28.169 (2×) and 24.2958	45.0704 and 44.7183 (2×)	59.8591 and 57.7465 and 60.9155	77.4648 and 79.5775 and 76.0563	100	1.05 µM	
